Assay results published in patent US9067892B2, “Spiroheterocyclic N-oxypiperidines as pesticides” (Syngenta Crop Protection, Inc., priority 2008, dated 2015).

Tests used:
[1] = tested on: Myzus persicae (green peach aphid); experiment: Example B16: Myzus persicae on pepper plants, feeding/residual contact activity; type: in vivo; conditions: 144 h, infested pepper plants sprayed, 6 days after treatment, mortality, read-out: activity against Myzus persicae
[2] = tested on: Myzus persicae (green peach aphid); experiment: Example B13: drench activity against Myzus persicae; type: in vivo; conditions: 168 h, pea seedlings in field soil, 7 days after infestation, mortality
Description: Drench Activity Against Myzus persicae (Green Peach Aphid) Pea seedlings cultivated in field soil are treated as drench application and infested with a mixed population of M. persicae. 7 days after infestation, samples are checked for mortality.

[3] = tested on: Myzus persicae (green peach aphid); experiment: Example B1: Myzus persicae, mixed population, feeding/residual contact activity, preventive; conditions: foliar, 144 h, read-out: activity
[4] = tested on: Myzus persicae (green peach aphid); experiment: Example B2: Myzus persicae, mixed population, systemic/feeding activity, curative; conditions: 144 h, read-out: activity
[5] = tested on: Aphis craccivora (cowpea aphid); experiment: Example B10: Aphis craccivora, mixed population, systemic/feeding; type: in vivo; conditions: 144 h, roots of infested pea seedlings in test solution, 6 days, mortality
Text: 6 days later, samples are checked for mortality.

[6] = tested on: Nilaparvata lugens (brown rice planthopper); experiment: Example B8: Nilaparvata lugens, larvicide, feeding/contact; type: in vivo; conditions: rice seedlings sprayed, N3 nymphs, 6-12 days after treatment
Description: Activity Against Nilaparvata lugens (Brown Rice Planthopper) (Larvicide, Feeding/Contact) Rice seedlings are treated with the diluted test solutions in a spray chamber. After drying, they are infested with 20 N3 nymphs (2 replicates). 6-12 days after the treatment samples are checked for mortality, growth regulation, and effects on the F1 generation.

[7] = tested on: Aphis craccivora (cowpea aphid); experiment: Example B11: translaminar activity against Aphis craccivora; type: in vivo; conditions: 120 h, French bean leaves, aphids on lower side, upper side painted, 5 days, mortality
Description: Translaminar Activity Against Aphis craccivora (Cowpea Aphid) French bean leaves (Phaseolus vulgaris) are infested with about 20 mixed age individuals on the lower leaf side using clip cages. 1 day after the infestation, the upper side of the leaves is treated with the test solution by painting. 5 days later, samples are checked for mortality.

[8] = tested on: Tetranychus urticae (two-spotted spider mite); experiment: Example B4: Tetranychus urticae, mixed population, feeding/residual contact activity, preventive; type: in vivo; conditions: foliar, 192 h, bean leaf discs sprayed, 8 days, egg, larval and adult mortality
Text: Activity Against Tetranychus urticae (Two-Spotted Spider Mite) (Mixed Population, Feeding/Residual Contact Activity, Preventive) Bean leaf discs on agar in 24-well microtiter plates are sprayed with test solutions. […] 8 days later, discs are checked for egg mortality, larval mortality, and adult mortality.

[9] = tested on: Thrips Tabaci (onion thrips); experiment: Example B3: Thrips tabaci, mixed population, feeding/residual contact activity, preventive; type: in vivo; conditions: foliar, 144 h, sunflower leaf discs sprayed, 6 days incubation, mortality

Compound | pest or weed control at 200 ppm [1] [%] | pest or weed control at 400 ppm [3] [%] | pest or weed control at 400 ppm [8] [%] | other results
CCOC(=O)OC1=C(c2cc(C)ccc2C)C(=O)N(C)C12CCN(OC)CC2 [P1.1] |  |  |  | melting point: 96 to 110 °C
CCOCN1C(=O)C(c2c(C)cc(C)cc2C)=C(OC(=O)OCC)C12CCN(OC)CC2 [P1.4] | ≥ 80 | > 80 |  | pest or weed control at 25 ppm [2]: > 80%; pest or weed control at 400 ppm [4]: > 80%; pest or weed control at 400 ppm [5]: > 80%; pest or weed control at 400 ppm [6]: > 80%; pest or weed control at 400 ppm [7]: > 80%
CCOC(=O)OC1=C(c2c(C)cc(C)cc2C)C(=O)N(CC2CC2)C12CCN(OC)CC2 [P1.5] | ≥ 80 |  | > 80 | pest or weed control at 400 ppm [6]: > 80%; pest or weed control at 400 ppm [7]: > 80%
CCOC(=O)OC1=C(c2c(C)cc(C)cc2Cl)C(=O)N(C)C12CCN(OC)CC2 [P1.6] |  | > 80 | > 80 | 
CCOC(=O)OC1=C(c2c(C)cc(C)cc2C)C(=O)N(C2CC2)C12CCN(OC)CC2 [P1.7] |  | > 80 |  | 
CCOC(=O)OC1=C(c2c(C)cc(C)cc2C)C(=O)N(CC)C12CCN(OC)CC2 [P1.8] |  |  |  | melting point: 101 to 103 °C
CCOC(=O)OC1=C(c2c(Cl)ccc(C)c2F)C(=O)N(C)C12CCN(OC)CC2 [P1.9] |  |  | > 80 | 
CCOC(=O)OC1=C(c2c(F)ccc(C)c2Cl)C(=O)N(C)C12CCN(OC)CC2 [P1.10] |  |  |  | pest or weed control at 400 ppm [4]: > 80%
CCOC(=O)OC1=C(c2c(C)cc(C)cc2Br)C(=O)N(C)C12CCN(OC)CC2 [P1.11] | ≥ 80 | > 80 |  | pest or weed control at 25 ppm [2]: > 80%; pest or weed control at 400 ppm [4]: > 80%; pest or weed control at 400 ppm [5]: > 80%; pest or weed control at 400 ppm [6]: > 80%; pest or weed control at 400 ppm [7]: > 80%
CCOC(=O)OC1=C(c2c(C)cc(Br)cc2C)C(=O)N(C)C12CCN(OC)CC2 [P1.12] | ≥ 80 | > 80 | > 80 | 
CCOC(=O)OC1=C(c2c(C)cccc2C)C(=O)N(C)C12CCN(OC)CC2 [P1.13] | ≥ 80 | > 80 |  | 
CCOC(=O)OC1=C(c2c(C)cc(C)cc2C)C(=O)N(CCCOC)C12CCN(OC)CC2 [P1.16] | ≥ 80 | > 80 | > 80 | 
CCOC(=O)OC1=C(c2c(C)cc(C)cc2C)C(=O)N(CCOCOC)C12CCN(OC)CC2 [P1.17] |  | > 80 |  | pest or weed control at 400 ppm [4]: > 80%
CCOC(=O)OC1=C(c2cc(C)c(C)cc2Br)C(=O)N(C)C12CCN(OC)CC2 [P1.20] |  |  |  | melting point: 158 to 159 °C
CCOC(=O)OC1=C(c2c(C)ccc(C)c2C)C(=O)N(C)C12CCN(OC)CC2 [P1.21] | ≥ 80 |  | > 80 | 
CCOC(=O)OC1=C(c2cc(C)c(C)cc2Cl)C(=O)N(C)C12CCN(OC)CC2 [P1.22] |  |  |  | melting point: 149 to 150 °C
CCOC(=O)OC1=C(c2ccc(C)cc2C)C(=O)N(C)C12CCN(OC)CC2 [P1.25] | ≥ 80 | > 80 | > 80 | 
CCOC(=O)OC1=C(c2c(C)cc(C)cc2C)C(=O)N(CC2CCCO2)C12CCN(OC)CC2 (centres unmarked) [P1.26] |  |  | > 80 | 
CCOC(=O)OC1=C(c2c(C)ccc(Cl)c2C)C(=O)N(C)C12CCN(OC)CC2 [P1.27] | ≥ 80 | > 80 |  | 
CCOC(=O)OC1=C(c2cc(C)c(Cl)cc2C)C(=O)N(C)C12CCN(OC)CC2 [P1.28] |  |  |  | pest or weed control at 400 ppm [9]: > 80%
CCOC(=O)OC1=C(c2c(C)cc(Cl)cc2C)C(=O)N(C)C12CCN(OC)CC2 [P1.29] | ≥ 80 | > 80 |  | 
CON1CCC2(CC1)C(O)=C(c1cc(C)ccc1C)C(=O)N2C [P2.1] |  |  |  | melting point: 121 to 123 °C
CON1CCC2(CC1)C(O)=C(c1ccc(Cl)cc1Cl)C(=O)N2CC(F)F [P2.4] |  | > 80 |  | 
COCCN1C(=O)C(c2c(C)cc(C)cc2C)=C(O)C12CCN(OC)CC2 [P2.7] |  | > 80 |  | pest or weed control at 25 ppm [2]: > 80%; pest or weed control at 400 ppm [5]: > 80%; pest or weed control at 400 ppm [6]: > 80%; pest or weed control at 400 ppm [7]: > 80%
CON1CCC2(CC1)C(O)=C(c1c(C)cc(C)cc1C)C(=O)N2CC1CC1 [P2.8, 1-Cyclopropylmethyl-4-hydroxy-8-methoxy-3-(2,4,6-trimethyl-phenyl)-1,8-diaza-spiro[4.5]dec-3-en-2-one] |  |  |  | melting point: 223 to 225 °C

Compound | pest or weed control at 200 ppm [1] [%] | pest or weed control at 400 ppm [3] [%] | pest or weed control at 400 ppm [8] [%] | other results
CON1CCC2(CC1)C(O)=C(c1c(C)cc(C)cc1Cl)C(=O)N2C [P2.9] |  | > 80 | > 80 | pest or weed control at 400 ppm [4]: > 80%
CON1CCC2(CC1)C(O)=C(c1c(C)cc(C)cc1C)C(=O)N2C1CC1 [P2.10] |  | > 80 |  | 
CCN1C(=O)C(c2c(C)cc(C)cc2C)=C(O)C12CCN(OC)CC2 [P2.11] |  |  |  | melting point: 218 to 221 °C
CON1CCC2(CC1)C(O)=C(c1c(F)ccc(C)c1Cl)C(=O)N2C [P2.13] |  |  | > 80 | 
CON1CCC2(CC1)C(O)=C(c1c(C)cc(C)cc1Br)C(=O)N2C [P2.14] |  | > 80 | > 80 | pest or weed control at 25 ppm [2]: > 80%; pest or weed control at 400 ppm [5]: > 80%; pest or weed control at 400 ppm [6]: > 80%; pest or weed control at 400 ppm [7]: > 80%
CON1CCC2(CC1)C(O)=C(c1cc(C)c(Cl)cc1C)C(=O)N2C [P2.15] |  |  | > 80 | 
CON1CCC2(CC1)C(O)=C(c1c(C)cc(Br)cc1C)C(=O)N2C [P2.16] | ≥ 80 | > 80 |  | pest or weed control at 400 ppm [4]: > 80%
CON1CCC2(CC1)C(O)=C(c1c(C)cccc1C)C(=O)N2C [P2.17] | ≥ 80 | > 80 |  | 
COCCCN1C(=O)C(c2c(C)cc(C)cc2C)=C(O)C12CCN(OC)CC2 [P2.20] |  | > 80 | > 80 | pest or weed control at 400 ppm [4]: > 80%; pest or weed control at 400 ppm [9]: > 80%
COCOCCN1C(=O)C(c2c(C)cc(C)cc2C)=C(O)C12CCN(OC)CC2 [P2.21] | ≥ 80 | > 80 | > 80 | pest or weed control at 400 ppm [4]: > 80%
CON1CCC2(CC1)C(O)=C(c1cc(C)c(C)cc1Br)C(=O)N2C [P2.23] |  |  |  | melting point: 191 to 193 °C
CON1CCC2(CC1)C(O)=C(c1c(C)ccc(C)c1C)C(=O)N2C [P2.24] | ≥ 80 |  |  | 
CON1CCC2(CC1)C(O)=C(c1cc(C)c(C)cc1C)C(=O)N2C [P2.25] |  |  |  | melting point: 183 to 186 °C
CON1CCC2(CC1)C(O)=C(c1cc(C)c(C)cc1Cl)C(=O)N2C [P2.26, 3-(2-Chloro-4,5-dimethyl-phenyl)-4-hydroxy-8-methoxy-1-methyl-1,8-diaza-spiro[4.5]dec-3-en-2-one] |  |  |  | melting point: 191 to 192 °C
CON1CCC2(CC1)C(O)=C(c1c(C)ccc(Cl)c1C)C(=O)N2C [P2.27] | ≥ 80 |  |  | 
CON1CCC2(CC1)C(O)=C(c1c(C)cc(C)cc1C)C(=O)N2CC1(C)COC1 [P2.30] | ≥ 80 |  |  | 
CON1CCC2(CC1)C(O)=C(c1c(C)cc(C)c(Cl)c1C)C(=O)N2C [P2.31] | ≥ 80 | > 80 | > 80 | pest or weed control at 400 ppm [4]: > 80%
CON1CCC2(CC1)C(O)=C(c1c(C)cc(C)cc1C)C(=O)N2CC1CCCO1 (centres unmarked) [P2.32] |  |  | > 80 | 
CON1CCC2(CC1)C(O)=C(c1c(C)cc(Cl)cc1C)C(=O)N2C [P2.33] | ≥ 80 | > 80 |  | 
CON1CCC2(CC1)C(O)=C(c1c(C)cc(Br)cc1Cl)C(=O)N2C [P2.34] | ≥ 80 |  |  | 
COc1cc(COC2=C(c3cc(C)ccc3C)C(=O)NC23CCN(OC)CC3)cc(OC)c1OC [P3.1] |  |  |  | pest or weed control at 400 ppm [9]: > 80%
COc1ccc(COC2=C(c3cc(C)ccc3C)C(=O)NC23CCN(OC)CC3)cc1 [P3.2] |  |  |  | pest or weed control at 400 ppm [9]: > 80%
CON1CCC2(CC1)NC(=O)C(c1c(C)cc(C)cc1C)=C2OCc1ccccc1 [P3.4, 4-benzyloxy-8-methoxy-3-(2,4,6-trimethyl-phenyl)-1,8-diaza-spiro[4.5]dec-3-en-2-one] |  |  | > 80 | pest or weed control at 400 ppm [9]: > 80%
CON1CCC2(CC1)C(OCc1ccccc1)=C(c1c(C)cc(C)cc1C)C(=O)N2CC1CC1 [P3.8, 4-benzyloxy-1-cyclopropylmethyl-8-methoxy-3-(2,4,6-trimethyl-phenyl)-1,8-diaza-spiro[4.5]dec-3-en-2-one] |  |  | > 80 | 
